One assay addresses KRas WT (Homo sapiens, UniProt P01116). Description: KRas binding assay (TR-FRET displacement), KRas WT. Particulars: single point, 10 nM compound.
The next assay deals with KRas G12A (Homo sapiens, UniProt P01116, G12A). Format: binding. Particulars: single point, 10 nM compound, read-out: Binding to KRas (% inhibition at 10 nM) G12A.
The target in a further assay is KRas G12C (Homo sapiens, UniProt P01116, G12C). Format: binding. Conditions: single point, 10 nM compound, read-out: Binding to KRas (% inhibition at 10 nM) G12C.
KRas G12C, sequence (P01116 1-169 isoform P01116-2 G12C): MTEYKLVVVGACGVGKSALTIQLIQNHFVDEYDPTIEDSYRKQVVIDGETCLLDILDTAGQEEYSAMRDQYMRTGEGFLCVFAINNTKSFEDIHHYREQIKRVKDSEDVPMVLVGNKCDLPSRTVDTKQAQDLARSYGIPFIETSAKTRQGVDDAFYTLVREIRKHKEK
The target in another assay is KRas G12S (Homo sapiens, UniProt P01116, G12S). It is filed as binding. Particulars: single point, 10 nM compound, read-out: Binding to KRas (% inhibition at 10 nM) G12S.
KRas G12S, sequence (P01116 1-169 isoform P01116-2 G12S): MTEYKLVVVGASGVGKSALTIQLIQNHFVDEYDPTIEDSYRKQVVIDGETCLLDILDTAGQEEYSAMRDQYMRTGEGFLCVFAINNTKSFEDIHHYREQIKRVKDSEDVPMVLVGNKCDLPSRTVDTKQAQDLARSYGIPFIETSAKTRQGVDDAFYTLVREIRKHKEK
The next assay has as its target KRas G13D (Homo sapiens, UniProt P01116, G13D). Format: binding. Particulars: single point, 10 nM compound, read-out: Binding to KRas (% inhibition at 10 nM) G13D.
For the next assay, the target named is KRas Q61H (Homo sapiens, UniProt P01116, Q61H). Description: KRas binding assay (TR-FRET displacement), KRas Q61H. Particulars: single point, 10 nM compound. On the technique in general: Time-resolved FRET reads energy transfer from a long-lived donor to a nearby acceptor.
KRas Q61H, sequence (P01116 1-169 isoform P01116-2 Q61H): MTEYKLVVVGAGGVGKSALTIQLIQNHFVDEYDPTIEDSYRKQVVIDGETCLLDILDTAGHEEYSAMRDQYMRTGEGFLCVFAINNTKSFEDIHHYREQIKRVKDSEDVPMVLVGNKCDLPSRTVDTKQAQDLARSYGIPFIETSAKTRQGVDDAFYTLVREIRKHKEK
The next assay has as its system MKN1 cells. Description: Inhibition of KRas-mediated phosphorylation of ERK (Cisbio HTRF pERK), MKN1 cells. It is filed as cell-based. Conditions: Homo sapiens, MKN-1, 3 hour compound incubation, Cisbio pERK HTRF. In outline: (§1)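 Cells were seeded on day 1 at 6,000 per well in RPMI containing 10% FBS before compound treatment and phospho-ERK detection.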
Another assay deals with PSN1 cells. The assay can be described thus: Inhibition of KRas-mediated phosphorylation of ERK (Cisbio HTRF pERK), PSN1 cells. Particulars: Homo sapiens, PSN1, 3 h, 3 hour compound incubation, Cisbio pERK HTRF. Format: cell-based. In short, it runs like this: as §1
The next assay deals with ASPC1 cells. Description: Inhibition of KRas-mediated phosphorylation of ERK (Cisbio HTRF pERK), ASPC1 cells. It is filed as cell-based. Conditions: Homo sapiens, AsPC-1 cells; for IC50: ASPC1, 3 h, 3 hr compound incubation, Cisbio pERK HTRF; for inhibition at 0.1 µM: ASPC1, single point at 100 nM, 3 hrs compound incubation.
The next assay has as its system H727 cells. The assay can be described thus: Inhibition of KRas-mediated phosphorylation of ERK (Cisbio HTRF pERK), H727 cells. Conditions: Homo sapiens; for IC50: NCI-H727, 3 h, 3 hr compound incubation, Cisbio pERK HTRF; for inhibition at 0.1 µM: NCI-H727, single point at 100 nM, 3 hrs compound incubation. It is filed as cell-based.
Another assay deals with A549 cells. Description: Inhibition of KRas-mediated phosphorylation of ERK (Cisbio HTRF pERK), A549 cells. It is filed as cell-based. Particulars: Homo sapiens; for inhibition at 0.1 µM: single point at 100 nM, 3 hrs compound incubation.
The next assay has as its system H460 cells. The assay can be described thus: Inhibition of KRas-mediated phosphorylation of ERK (Cisbio HTRF pERK), H460 cells. It is filed as cell-based. Particulars: Homo sapiens; for inhibition at 0.1 µM: NCI-H460, single point at 100 nM, 3 hrs compound incubation.
Another assay deals with HCT116 cells. The assay can be described thus: Inhibition of KRas-mediated phosphorylation of ERK (Cisbio HTRF pERK), HCT116 cells. It is filed as cell-based. Particulars: Homo sapiens; for inhibition at 0.1 µM: HCT-116, single point at 100 nM, 3 hrs compound incubation.
The subject of another assay is H358 cells. Description: Inhibition of KRas-mediated phosphorylation of ERK (Cisbio HTRF pERK), H358 cells. It is filed as cell-based. Conditions: Homo sapiens; for inhibition at 0.1 µM: NCI-H358, single point at 100 nM, 3 hrs compound incubation.
The target in a further assay is KRas G12D (Homo sapiens, UniProt P01116, G12D). The assay can be described thus: biochemical. Conditions: Binding to KRas (IC50 nM) G12D, TR-FRET displacement, KRas G12D.
KRas G12D, sequence (P01116 1-169 isoform P01116-2 G12D): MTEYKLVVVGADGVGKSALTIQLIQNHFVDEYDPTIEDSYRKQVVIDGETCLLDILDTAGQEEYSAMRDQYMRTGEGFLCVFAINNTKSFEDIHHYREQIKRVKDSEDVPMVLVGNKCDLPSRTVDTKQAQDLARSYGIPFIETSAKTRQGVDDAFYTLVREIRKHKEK
A further assay concerns the target KRas G12R (Homo sapiens, UniProt P01116, G12R). The assay can be described thus: biochemical. Particulars: Binding to KRas (IC50 nM) G12R, TR-FRET displacement, KRas G12R.
Another assay addresses KRas G12V (Homo sapiens, UniProt P01116, G12V). Description: biochemical. Particulars: Binding to KRas (IC50 nM) G12V, TR-FRET displacement, KRas G12V.

These results are taken from patent US20250368649A1, “TETRAHYDROPYRIDOPYRIMIDINE PAN-KRAS INHIBITORS” (Mirati Therapeutics, Inc., priority 2022, published 2025).

KRas G12V, sequence (P01116 1-169 isoform P01116-2 G12V): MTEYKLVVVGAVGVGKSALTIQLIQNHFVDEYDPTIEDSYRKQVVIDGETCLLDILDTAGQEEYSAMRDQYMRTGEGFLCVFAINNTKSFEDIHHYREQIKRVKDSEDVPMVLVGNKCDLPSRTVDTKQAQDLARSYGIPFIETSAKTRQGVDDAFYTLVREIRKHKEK
KRas G13D, sequence (P01116 1-169 isoform P01116-2 G13D): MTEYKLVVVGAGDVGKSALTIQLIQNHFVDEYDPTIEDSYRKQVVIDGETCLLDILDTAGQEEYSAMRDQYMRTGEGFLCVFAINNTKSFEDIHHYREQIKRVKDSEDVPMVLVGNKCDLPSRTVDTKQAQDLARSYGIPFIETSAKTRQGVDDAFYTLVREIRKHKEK
KRas G12R, sequence (P01116 1-169 isoform P01116-2 G12R): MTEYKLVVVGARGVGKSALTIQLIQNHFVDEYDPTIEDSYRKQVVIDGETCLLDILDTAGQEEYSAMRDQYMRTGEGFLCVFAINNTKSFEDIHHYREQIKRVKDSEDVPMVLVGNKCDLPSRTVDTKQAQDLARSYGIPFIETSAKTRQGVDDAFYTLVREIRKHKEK
KRas WT, sequence (P01116 1-169 isoform P01116-2): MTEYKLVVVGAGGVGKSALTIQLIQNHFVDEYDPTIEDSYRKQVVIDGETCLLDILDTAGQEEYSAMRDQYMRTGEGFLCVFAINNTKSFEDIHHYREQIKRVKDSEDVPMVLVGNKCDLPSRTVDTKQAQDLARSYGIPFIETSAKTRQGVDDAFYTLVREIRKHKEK
KRas G12A, sequence (P01116 1-169 isoform P01116-2 G12A): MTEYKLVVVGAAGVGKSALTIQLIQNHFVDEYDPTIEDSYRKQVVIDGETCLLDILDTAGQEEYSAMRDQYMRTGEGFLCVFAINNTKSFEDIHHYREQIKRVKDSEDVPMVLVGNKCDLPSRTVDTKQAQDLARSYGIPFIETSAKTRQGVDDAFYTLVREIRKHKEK

As usually defined, the inhibition is the relative decrease from the control value, in per cent. One may read the IC50 as the point on the concentration scale where inhibition reaches its midpoint. High values mean a need for much substance, low ones inhibition by little substance. Regarding `CCc1c(F)ccc2cc(O)cc(N3CCc4c(nc(OC[C@@]56CCCN5C[C@H](F)C6)nc4N4CCCn5nc(C(=O)N6CCN7CCC6C7)cc5C4)C3)c12` (stereo partly drawn) [Example 259, (1,4-diazabicyclo[3.2.1]octan-4-yl)(5-(7-(8-ethyl-7-fluoro-3-hydroxynaphthalen-1-yl)-2-(((2R,7aS)-2-fluorotetrahydro-1H-pyrrolizin-7a(5H)-yl)methoxy)-5,6,7,8-tetrahydropyrido[3,4-d]pyrimidin-4-yl)-5,6,7,8-tetrahydro-4H-pyrazolo[1,5-a][1,4]diazepin-2-yl)methanone], the inhibition at 0.01 µM is 94% at KRas WT; 94% on KRas G12A; 97% on KRas G12C; 98% at KRas G12S; 96% on KRas G13D; 96% at KRas Q61H. The IC50 with MKN1 cells was 3.3 nM; with PSN1 cells, 3940 nM; in the assay with ASPC1 cells, 32 nM; with H727 cells, 287 nM; at KRas G12D, less than 2 nM; on KRas G12R it was less than 2 nM. The same molecule had an IC50 at KRas G12V of less than 2 nM. In addition, the inhibition at 0.1 µM was 79% with ASPC1 cells; 29% with H727 cells; 6% with A549 cells; 14% in the assay on H460 cells; -11% in the assay on HCT116 cells; 66% with H358 cells.

Take `CCc1c(F)ccc2cc(O)cc(N3CCc4c(nc(OC[C@@]56CCCN5C[C@H](F)C6)nc4N4CCCn5nc(C(=O)N6CC7CCC6CN7C)cc5C4)C3)c12` (stereo partly drawn) [Example 260, (5-(7-(8-ethyl-7-fluoro-3-hydroxynaphthalen-1-yl)-2-(((2R,7aS)-2-fluorohexahydro-1H-pyrrolizin-7a-yl)methoxy)-5,6,7,8-tetrahydropyrido[3,4-d]pyrimidin-4-yl)-5,6,7,8-tetrahydro-4H-pyrazolo[1,5-a][1,4]diazepin-2-yl)(5-methyl-2,5-diazabicyclo[2.2.2]octan-2-yl)methanone]: the inhibition at 0.01 µM at KRas WT was determined as 98%; on KRas G12A it was 97%; at KRas G12C, 99%; on KRas G12S, 99%; on KRas G13D, 98%; at KRas Q61H it was 98%. Besides, the IC50 is 29.2 nM with MKN1 cells; greater than 10000 nM in the assay with PSN1 cells; 2 nM in the assay with ASPC1 cells; 8 nM with H727 cells; 53 nM in the assay on A549 cells (A549, 3 h, 3 hr compound incubation, Cisbio pERK HTRF); 102 nM in the assay with H460 cells (NCI-H460, 3 h, 3 hr compound incubation, Cisbio pERK HTRF). Besides, the IC50 was 151 nM with HCT116 cells (HCT-116, 3 h, 3 hr compound incubation, Cisbio pERK HTRF); 17 nM with H358 cells (NCI-H358, 3 h, 3 hr compound incubation, Cisbio pERK HTRF); less than 2 nM on KRas G12D; less than 2 nM on KRas G12R; less than 2 nM on KRas G12V. Also, the inhibition at 0.1 µM in the assay with ASPC1 cells worked out at 98%; in the assay on H727 cells it was 54%; in the assay on A549 cells, 73%; with H460 cells, 38%; in the assay on HCT116 cells it was 29%; with H358 cells it was 97%.

In the case of `CCc1c(F)ccc2cc(O)cc(N3CCc4c(nc(OC[C@@]56CCCN5C[C@H](F)C6)nc4N4CCCn5nc(C(=O)N6CC7CC6CN7C)cc5C4)C3)c12` (stereo partly drawn) [Example 261, (5-(7-(8-ethyl-7-fluoro-3-hydroxynaphthalen-1-yl)-2-(((2R,7aS)-2-fluorohexahydro-1H-pyrrolizin-7a-yl)methoxy)-5,6,7,8-tetrahydropyrido[3,4-d]pyrimidin-4-yl)-5,6,7,8-tetrahydro-4H-pyrazolo[1,5-a][1,4]diazepin-2-yl)(5-methyl-2,5-diazabicyclo[2.2.1]heptan-2-yl)methanone], the inhibition at 0.01 µM on KRas WT turned out to be 97%; on KRas G12A, 98%; on KRas G12C, 99%; on KRas G12S, 99%; on KRas G13D it was 97%; at KRas Q61H, 96%. Also, the IC50 in the assay on MKN1 cells is 57.4 nM; in the assay on PSN1 cells, greater than 10000 nM; in the assay on ASPC1 cells, 23 nM; with H727 cells, 63 nM; on KRas G12D, less than 2 nM; on KRas G12R it was less than 2 nM. This molecule also had an IC50 at KRas G12V of less than 2 nM. The inhibition at 0.1 µM in the assay with ASPC1 cells turned out to be 89%; with H727 cells it was 29%; in the assay with A549 cells it was 40%; in the assay on H460 cells, 37%; in the assay with HCT116 cells it was 15%; in the assay with H358 cells, 88%.

In the case of `CCc1c(F)ccc2cc(O)cc(N3CCc4c(nc(OC[C@@]56CCCN5C[C@H](F)C6)nc4N4CCCn5nc(C(=O)N6CC7CC(C6)N7C)cc5C4)C3)c12` [Example 262], the inhibition at 0.01 µM at KRas WT is 95%; at KRas G12A it was 95%; at KRas G12C, 99%; on KRas G12S, 98%; on KRas G13D it was 97%; at KRas Q61H, 96%. In addition, the IC50 in the assay with MKN1 cells is 56 nM; in the assay with PSN1 cells, greater than 10000 nM; in the assay with ASPC1 cells, 14 nM; in the assay on H727 cells, 78 nM; on KRas G12D, less than 2 nM; at KRas G12R, less than 2 nM. At KRas G12V, this molecule registered an IC50 of less than 2 nM. Further, the inhibition at 0.1 µM in the assay with ASPC1 cells worked out at 94%; with H727 cells, 38%; with A549 cells it was 47%; with H460 cells, 21%; in the assay on HCT116 cells, 16%; with H358 cells it was 91%.

Turning to `CCc1c(F)ccc2cc(O)cc(N3CCc4c(nc(OC[C@@]56CCCN5C[C@H](F)C6)nc4N4CCCn5nc(C(=O)N6CC7CCC(C6)N7)cc5C4)C3)c12` [Example 265, 3,8-diazabicyclo[3.2.1]octan-3-yl(5-(7-(8-ethyl-7-fluoro-3-hydroxynaphthalen-1-yl)-2-(((2R,7aS)-2-fluorohexahydro-1H-pyrrolizin-7a-yl)methoxy)-5,6,7,8-tetrahydropyrido[3,4-d]pyrimidin-4-yl)-5,6,7,8-tetrahydro-4H-pyrazolo[1,5-a][1,4]diazepin-2-yl)methanone], the inhibition at 0.01 µM was found to be 98% on KRas WT; 97% at KRas G12A; 100% on KRas G12C; 99% at KRas G12S; 99% at KRas G13D; 97% on KRas Q61H. For the same molecule, the IC50 is 23.1 nM with MKN1 cells; greater than 10000 nM in the assay on PSN1 cells; 31 nM in the assay on ASPC1 cells; 217 nM with H727 cells; less than 2 nM at KRas G12D; less than 2 nM on KRas G12R. On KRas G12V, this molecule returned an IC50 of less than 2 nM. For the same molecule, the inhibition at 0.1 µM was 63% with ASPC1 cells; 40% in the assay with H727 cells; 32% with A549 cells; -4% in the assay on H460 cells; 16% with HCT116 cells; 60% with H358 cells.
